pIC50: −log10 of the molar value. Like-named read-outs stand apart in the source and are kept apart here.
Key:
TC-32 = test: Cytotoxicity: Ewing's sarcoma; details: Homo sapiens, TC-32, read-out: cytotoxic activity (IC50)
SUDHL-4 = details: human
Experimental: After 72 hours, the cultures were pulsed with Alamar Blue overnight, and the fluorescent intensity of resulted cultures was measured by a Synergy H1 plate-reader (BioTek Inc). […] When human CD34+ cells were used for drug screen, 500˜1,000 cells/well were cultured in the presence of 20 ng/ml KL, 20 ng/ml IL-3, 20 ng/ml G-CSF and 6 units/ml EPO for 7-10 days prior to an addition of Alamar Blue.

OSA = test: Cytotoxicity: Osteosarcoma; details: Homo sapiens, read-out: cytotoxic activity (IC50)
H526 = test: 72 hr cytotoxicity: SCLC variant; type: cell-based; details: Homo sapiens, NCI-H526
HS5 = test: 72 hr cytotoxicity: Adult BM stroma; type: cell-based; details: Homo sapiens; HS5, 72 hr
[1] = test system: Desmoplastic small round cell tumor (DSRCT) cell lines; test: Cytotoxicity on sarcoma panel; type: cell-based; details: Homo sapiens; two DSRCT lines; read-out: IC50 range
SVGp12 = test: 72 hr cytotoxicity: Astroglia; type: cell-based; details: Homo sapiens; SVGp12, 72 hr
H1703 = test: cells; type: cell-based; details: Homo sapiens, NCI-H1703
H2228 (EML4-ALK) = test: cells; type: cell-based; details: Homo sapiens, NCI-H2228
[2] = test system: A673 Ewing's sarcoma cells; test: Cell cycle / apoptosis by flow cytometry; type: cell-based, human
BMEC-hTert = test: cells; type: cell-based; details: Homo sapiens, 72 h
HL-60 = test: Cytotoxicity: AML line; type: cell-based; details: Homo sapiens
H299 = test: Cytotoxicity: Large-Cell Lung Cancer; type: cell-based; details: Homo sapiens
N-417 = test: 72 hr cytotoxicity: SCLC variant; type: cell-based; details: Homo sapiens, N417
CB Wk2 CAFC HPC = test: CAFC assay week 2; type: cell-based; details: Homo sapiens
Excerpt: Half of medium was replenished with fresh medium weekly in triplicates. After 5 weeks, CAFC numbers of co-cultures were scored under a phase contrast microscope as areas of phase-dark cells beneath the stromal monolayer. For determining leukemic stem cells (LSC) the same assay was used but cultures are scored for cobblestone areas by 2 wks. Secondary re-passage of dissociated cobblestone area-forming cells onto fresh stroma was used to confirm the self-renewing ability of both HSC and LSC.

THP-1 = test: Cytotoxicity: AML line; type: cell-based; details: Homo sapiens
[3] = test system: Human T-ALL primary cells; test: Cytotoxicity: patient sample; type: cell-based
[4] = test system: MA-10-W51 CB MLL-AF9 + Flt3ITD; test: Cytotoxicity: AML HSC-derived; type: cell-based, human; details: for pIC50: Homo sapiens
Excerpt: • a) Growth factor-dependent & cell density growth dependent cell lines. Human cord blood CD34+ cells transduced with MLL-AF9 gene: MA-10, MA-18. Human bone marrow CD34+ cells transduced with MLL-AF9 gene: MA-23. Human cord blood CD34+ cells transduced with MLL-AF9 and N-ras genes: MA-9.3, MA-9.6. • b) Growth factor independent leukemic cell lines. Human MA-10 cells transduced with Flt3 ITD (W51) were adapted to in vitro proliferation without growth factors (Moore Laboratory).

[5] = test system: lymphoma cell lines (DLBCL GBC and ABC subtypes, mantle cell lymphoma); test: Cytotoxicity on panel of lymphoma cell lines; type: cell-based, human; details: for pIC50: Homo sapiens
H1373 (KRAS) = test: cells; type: cell-based; details: Homo sapiens, NCI-H1373

SMILES: CN(C)CCNC(=O)c1cccc(NC(=O)Nc2ccc(N(CCCl)CCCl)cc2)c1.Cl [BO-1055, ureidomustine]
- pIC50 (TC-32): 6.22
- pIC50 (SUDHL-4): 5.79
- pIC50 (OSA): ≤ 5.00
- pIC50 (H526): 6.92
- pIC50 (HS5): ≤ 4.70
- pIC50 [1]: 5.43 to 5.62
- pIC50 (SVGp12): ≤ 5.00
- pIC50 (H1703): 5.78
- pIC50 (H2228 (EML4-ALK)): 5.77
- cell cycle effect [2]: induced cell cycle arrest in the G2/M phase
- pIC50 (BMEC-hTert): < 5.00
- pIC50 (HL-60): 5.82
- pIC50 (H299): 5.27
- pIC50 (N-417): 4.52
- pIC50 (CB Wk2 CAFC HPC; read-out: IC50 (mean of n=4 cord blood samples), Wk2 CAFC HPC): 5.04
- pIC50 (CB Wk2 CAFC HPC; FIG. 1: wk 2 CAFC (HPC) and wk 5 CAFC (HSC), read-out: IC50): 5.09 to 5.12
- pIC50 (THP-1): 6.35
- pIC50 [3]: 6.00
- pIC50 ([4]; MA10 W51 growth factor (hGM-CSF or hIL-3) dependent sub-line): 6.40 to 6.55
- pIC50 ([4]; MA10 W51 growth factor independent sub-line): ~5.00
- pIC50 ([4]; MLL-AF9, MA-10-W51): 6.40
- cytotoxicity (in words) ([4]; growth factor dependent MA-10-W51, FIG. 9): highly cytotoxic
- TI ([5]; 14 moderately sensitive lymphoma lines): 2.04-9.03
- pIC50 ([5]; 4 TP53 wild type lines, read-out: IC50 range): 5.15 to 6.92
- pIC50 ([5]; 11 of 27 lymphoma lines, highly sensitive, read-out: IC50 range): 6.08 to 6.92
- pIC50 ([5]; 14 of 27 lymphoma lines, moderately sensitive, read-out: IC50 range): 5.31 to 5.97
- pIC50 ([5]; eight lines with TP53 mutations, read-out: IC50 range): 5.31 to 6.54
- pIC50 ([5]; mutated/rearranged/amplified BCL2 lines, read-out: IC50 range): 5.31 to 6.54
- pIC50 ([5]; two resistant lymphoma lines, read-out: IC50): < 5.00
- Therapeutic window ([5]; human B-cell lymphomas vs various normal human cell types): 50-100 fold
- pIC50 (H1373 (KRAS)): ≤ 5.00

Reference: patent US10548861B2 (Academia Sinica, priority 2015, dated 2020)
